From ChEMBL document CHEMBL6074684, “Structure-activity relationship study of novel evodiamine amino acid conjugates with potent anti-colorectal cancer efficacy” (Eur J Med Chem, 2025)
Values after ≈ are worked out from the molar mass of the structure shown. Active and inactive are the calls of the source. The rule behind the calls is not given here.

How the values were obtained:
[1] = Aqueous solubility of compound by HPLC analysis; format: physicochemical
LoVo [2] = experiment: Cell cycle arrest in human LoVo cells assessed as accumulation of cells at G1 phase cells at 10 nM incubated for 24 hrs by […]PI staining based flow cytometric analysis (reference value: 29.69 %); format: functional
HT-29 = experiment: Antitumor activity against human HT-29 cells xenografted in male BALB/c nude mouse assessed as tumor growth inhibition at 40 mg/kg, ip administered once daily for 14 days relative to control; format: functional; conditions: HT-29, 336 h, time 14 day, read-out: TGI
[3] = Stability of compound at pH 7.4 assessed as residual rate measured after 2 days; format: physicochemical; conditions: buffer, time 2 day, read-out: Stability
[4] = biological target: T1, DNA topoisomerase 1 (Homo sapiens) (UniProt P11387); experiment: Inhibition of topoisomerase 1 (unknown origin) mediated DNA relaxation at 100 uM preincubated for 20 mins followed by pBR322 plasmid DNA addition and measured after 15 mins by red nucleic acid gel staining based agarose gel electrophoresis; conditions: time 35.0 min
T1 sequence (whole entry): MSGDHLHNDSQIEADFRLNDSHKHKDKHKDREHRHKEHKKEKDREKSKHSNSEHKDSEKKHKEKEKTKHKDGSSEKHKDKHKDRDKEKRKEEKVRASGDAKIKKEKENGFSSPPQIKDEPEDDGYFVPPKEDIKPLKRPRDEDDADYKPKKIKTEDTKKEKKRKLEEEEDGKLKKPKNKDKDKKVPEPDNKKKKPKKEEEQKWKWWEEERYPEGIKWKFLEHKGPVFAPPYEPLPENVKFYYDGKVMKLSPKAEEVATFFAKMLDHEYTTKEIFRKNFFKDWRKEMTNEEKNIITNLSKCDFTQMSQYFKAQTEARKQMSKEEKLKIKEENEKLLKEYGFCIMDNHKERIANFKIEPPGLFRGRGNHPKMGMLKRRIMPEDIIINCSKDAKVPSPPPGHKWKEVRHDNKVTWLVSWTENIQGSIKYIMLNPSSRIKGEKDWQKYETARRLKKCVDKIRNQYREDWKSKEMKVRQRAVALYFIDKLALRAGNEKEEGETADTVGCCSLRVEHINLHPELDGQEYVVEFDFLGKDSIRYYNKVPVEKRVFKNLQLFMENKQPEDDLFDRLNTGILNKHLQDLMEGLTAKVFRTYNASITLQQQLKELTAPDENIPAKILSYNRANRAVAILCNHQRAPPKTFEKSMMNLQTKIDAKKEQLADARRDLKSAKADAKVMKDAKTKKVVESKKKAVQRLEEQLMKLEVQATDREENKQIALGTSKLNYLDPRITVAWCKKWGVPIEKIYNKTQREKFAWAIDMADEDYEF

[5] = Stability of compound at pH 5.5 assessed as residual rate measured after 2 days; format: physicochemical; conditions: buffer, time 2 day, read-out: Stability
Mitochondrial membrane = experiment: Induction of mitochondrial membrane potential loss in human LoVo cells assessed as TMRE positive cells at 90 nM incubated for 24 hrs by TMRE staining based flow cytometric analysis (reference value: 95.93 %); format: cell membranes
LoVo [6] = experiment: Cell cycle arrest in human LoVo cells assessed as accumulation of cells at S phase cells at 10 nM incubated for 24 hrs by […]PI staining based flow cytometric analysis (reference value: 54.99 %); format: functional
[7] = Toxicity in male BALB/c nude mouse xenografted with human LoVo cells assessed as body weight loss at 40 mg/kg, ip administered once daily for 14 days; format: organism-based; conditions: in vivo, 336 h, time 14 day
RKO [8] = experiment: Cell cycle arrest in human RKO cells assessed as accumulation of cells at G2 phase at 90 nM incubated for 24 hrs by […]PI staining based flow cytometric analysis (reference value: 20.07 %); format: functional
LoVo [9] = experiment: Cell cycle arrest in human LoVo cells assessed as accumulation of cells at G2 phase cells at 10 nM incubated for 24 hrs by […]PI staining based flow cytometric analysis (reference value: 14.84 %); format: functional
LoVo [10] = experiment: Cell cycle arrest in human LoVo cells assessed as accumulation of cells at S phase cells at 90 nM incubated for 24 hrs by […]PI staining based flow cytometric analysis (reference value: 54.99 %); format: functional
Huh-7 = experiment: Antiproliferative activity against human Huh-7 cells assessed as inhibition of cell growth incubated for 72 hrs by MTT assay; format: functional, cell-based; conditions: Huh-7, 72 h
LoVo [11] = experiment: Induction of apoptosis in human LoVo cells assessed as apoptosis rate at 90 nM incubated for 24 hrs by Annexin V/PI staining based flow cytometric analysis (reference value: 4.71 %); format: functional
HGC-27 = experiment: Antiproliferative activity against human HGC-27 cells assessed as inhibition of cell growth incubated for 72 hrs by MTT assay; format: functional, cell-based; conditions: HGC-27, 72 h
RKO [12] = experiment: Cell cycle arrest in human RKO cells assessed as accumulation of cells at G2 phase at 10 nM incubated for 24 hrs by […]PI staining based flow cytometric analysis (reference value: 20.07 %); format: functional
RKO [13] = experiment: Cell cycle arrest in human RKO cells assessed as accumulation of cells at G1 phase at 10 nM incubated for 24 hrs by […]PI staining based flow cytometric analysis (reference value: 35.29 %); format: functional
LoVo [14] = experiment: Induction of morphological changes in human LoVo cells assessed as appearance of contracted nucleus incubated for 24 hrs by Giemsa staining based microscopic analysis; format: functional, cell-based; conditions: dose 10-90 nM
[15] = Potency index, ratio of topotecan IC50 to test compound IC50 for antiproliferative activity against human RKO cells assessed as inhibition of cell growth incubated for 72 hrs by MTT assay; format: functional
RKO [16] = experiment: Cell cycle arrest in human RKO cells assessed as accumulation of cells at G2 phase at 30 nM incubated for 24 hrs by […]PI staining based flow cytometric analysis (reference value: 20.07 %); format: functional
[17] = Apparent clearance during terminal phase in male Sprague-Dawley rat at 50 mg/kg, ip measured after 24 hrs by LC-MS/MS analysis; format: ADME, organism-based; conditions: in vivo, read-out: CLz/F (converted)
[18] = Potency index, ratio of topotecan IC50 to test compound IC50 for antiproliferative activity against human LoVo cells assessed as inhibition of cell growth incubated for 72 hrs by MTT assay; format: functional
SK-HEP1 = experiment: Antiproliferative activity against human SK-HEP1 cells assessed as inhibition of cell growth incubated for 72 hrs by MTT assay; format: functional, cell-based; conditions: SK-HEP1, 72 h
[19] = Stability of compound at pH 4.6 assessed as residual rate measured after 2 days; format: physicochemical; conditions: buffer, time 2 day, read-out: Stability
HCT-116 = experiment: Antiproliferative activity against human […] cells assessed as inhibition of cell growth incubated for 72 hrs by MTT assay; format: functional, cell-based; conditions: HCT-116, 72 h
LoVo [20] = experiment: Cell cycle arrest in human LoVo cells assessed as accumulation of cells at G2 phase cells at 30 nM incubated for 24 hrs by […]PI staining based flow cytometric analysis (reference value: 14.84 %); format: functional
LoVo [21] = experiment: Cell cycle arrest in human LoVo cells assessed as accumulation of cells at S phase cells at 30 nM incubated for 24 hrs by […]PI staining based flow cytometric analysis (reference value: 54.99 %); format: functional

## CC(C)(C)OC(=O)N[C@@H](CCC(N)=O)C(=O)Oc1ccc2[nH]c3c(c2c1)CCN1C(=O)c2cc(F)ccc2N(c2cccc(F)c2)[C@H]31
[1]
  solubility: 11.4 µg/mL (≈ 17.7 µM)
LoVo [2]
  Activity: 26.62%
HT-29
  inhibition in vivo at 40 mg/kg: 70.1%
[3]
  remaining at 48 h: 40.2%
[4]
  inhibition: Active
[5]
  remaining at 48 h: 60.1%
Mitochondrial membrane
  Activity: 86.7%
LoVo [6]
  Activity: 45.15%
[7]
  Activity: Non-toxic
RKO [8]
  Activity: 21.72%
LoVo [9]
  Activity: 27.11%
LoVo [10]
  Activity: 53.62%
Huh-7
  IC50: 370 nM
LoVo [11]
  Activity: 36.4%
HGC-27
  IC50: 110 nM
RKO [12]
  Activity: 27.14%
RKO [13]
  Activity: 29.55%
LoVo [14]
  Activity: Dose-dependent-effect
[15]
  Ratio IC50: 3.4
RKO [16]
  Activity: 56.8%
[17]
  CL/F: 57.2 mL/min/kg
[18]
  Ratio IC50: 3.4
SK-HEP1
  IC50: 870 nM
[19]
  remaining at 48 h: 67.8%
HCT-116
  IC50: 260 nM
LoVo [20]
  Activity: 61.56%
LoVo [21]
  Activity: 26.97%
